Measurements reported in ChEMBL document CHEMBL1821577, “Discovery of GSK1997132B a novel centrally penetrant benzimidazole PPARγ partial agonist” (Bioorg Med Chem Lett, 2011).

Assays:
[1] = target: T1, Peroxisome proliferator-activated receptor gamma (Homo sapiens, UniProt P37231); assay: Partial agonist activity at human PPARgamma by luciferase reporter gene assay; type: functional
T1 sequence (P37231 whole entry): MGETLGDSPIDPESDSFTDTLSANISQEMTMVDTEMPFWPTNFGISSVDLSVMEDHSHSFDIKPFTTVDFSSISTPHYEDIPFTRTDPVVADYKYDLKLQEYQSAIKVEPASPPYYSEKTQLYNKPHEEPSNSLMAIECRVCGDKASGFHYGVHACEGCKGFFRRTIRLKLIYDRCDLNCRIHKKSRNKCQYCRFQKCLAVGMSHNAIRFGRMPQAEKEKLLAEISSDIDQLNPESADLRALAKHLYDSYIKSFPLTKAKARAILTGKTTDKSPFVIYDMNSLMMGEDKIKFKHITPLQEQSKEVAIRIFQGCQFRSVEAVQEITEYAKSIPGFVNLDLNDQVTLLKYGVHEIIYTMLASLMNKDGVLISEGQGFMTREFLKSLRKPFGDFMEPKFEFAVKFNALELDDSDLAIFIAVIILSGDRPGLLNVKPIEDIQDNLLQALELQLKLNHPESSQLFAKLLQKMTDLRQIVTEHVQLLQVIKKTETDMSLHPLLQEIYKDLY

[2] = target: T2, Peroxisome proliferator-activated receptor gamma (Homo sapiens) (UniProt P37231); assay: Activity at human PPARgamma by luciferase reporter gene assay; design: concentration or dose not given beside the values
T2 sequence (whole entry): T1 sequence (P37231 whole entry)

Liver microsomes [3] = assay: Intrinsic clearance in rat liver microsome; type: ADME
Liver microsomes [4] = assay: Intrinsic clearance in human liver microsome; type: ADME
Liver = assay: Intrinsic clearance in rat liver S9 fraction; type: ADME, subcellular
Rattus norvegicus [5] = assay: Blood clearance in rat at 1 mg/kg, iv; type: ADME, organism-based; design: dose 1 mg/kg, route intravenous; conditions: in vivo
[6] = Ratio of drug uptake in brain to blood in rat at 3 mg/kg, po; type: ADME, organism-based; design: dose 3 mg/kg, route oral
Brain [7] = assay: Drug uptake in rat brain at 3 mg/kg, po; type: ADME, organism-based; design: dose 3 mg/kg, route oral; conditions: in vivo, read-out: Drug uptake
Rattus norvegicus [8] = assay: Blood clearance at steady state in rat at 2 mg/kg/h, iv; type: ADME, organism-based; design: route intravenous; conditions: in vivo
[9] = Ratio of drug uptake in brain to blood at steady state in rat at 2 mg/kg/h, iv; type: ADME, organism-based; design: route intravenous
Brain [10] = assay: Drug uptake in rat brain at steady state at 2 mg/kg/h, iv; type: ADME, organism-based; design: route intravenous; conditions: in vivo, read-out: Drug uptake

SMILES	EC50 [1] [nM]	Activity [2] [%]	other results
CC[C@@H](NC(=O)c1ccc2c(c1)nc(C)n2Cc1ccc(Cl)c(Cl)c1)c1ccccc1	39.8	75	–
CC[C@@H](NC(=O)c1ccc2c(c1)ncn2Cc1ncccc1Cl)c1ccccc1	15.8	81	–
CC[C@@H](NC(=O)c1ccc2c(c1)ncn2Cc1ncc(Cl)cc1Cl)c1ccccc1	0.501	76	–
CC[C@@H](NC(=O)c1ccc2c(c1)nc(C)n2Cc1ccccc1Cl)c1ccccc1	50.1	80	–
CC[C@@H](NC(=O)c1ccc2c(c1)ncn2Cc1cccnc1)c1ccccc1	501	74	–
CC[C@@H](NC(=O)c1ccc2c(c1)nc(C)n2Cc1cccc(Cl)c1)c1ccccc1	79.4	76	–
CC[C@@H](NC(=O)c1ccc2c(c1)ncn2Cc1ccccc1OC)c1ccccc1	5.01	75	–
Cc1nc2cc(C(=O)N[C@H](C)c3ccccc3)ccc2n1Cc1ccc(Cl)c(Cl)c1	50.1	77	CL (Liver microsomes [3]): 1.4 mL/min/g; CL (Liver microsomes [4]): 0.5 mL/min/g; CL (Liver): 8.3 mL/min/g; clearance (Rattus norvegicus [5]): 75 mL/min/kg; Kp [6]: 0.29; concentration (Brain [7]): 12 nM
Cc1nc2cc(C(=O)N[C@@H](C)c3ccccc3)ccc2n1Cc1ccc(Cl)c(Cl)c1	631	50	–
CC[C@@H](NC(=O)c1ccc2c(c1)ncn2Cc1ccc(F)cc1F)c1ccccc1	1.58	73	CL (Liver microsomes [3]): 3.7 mL/min/g; CL (Liver microsomes [4]): 0.5 mL/min/g; clearance (Rattus norvegicus [8]): 107 mL/min/kg; Kp [9]: 0.59; concentration (Brain [10]): 455 nM
CC[C@@H](NC(=O)c1ccc2c(c1)ncn2Cc1ccccn1)c1ccccc1	126	59	clearance (Rattus norvegicus [8]): 78 mL/min/kg; Kp [9]: 0.2; concentration (Brain [10]): 228 nM

More lines, main results first:

EC50 [1] [nM]	Activity [2] [%]	SMILES	other results
794	63	CC[C@@H](NC(=O)c1ccc2c(c1)ncn2Cc1ccncc1)c1ccccc1	–
31.6	66	CC[C@@H](NC(=O)c1ccc2c(c1)nc(C)n2Cc1ccc(Cl)cc1)c1ccccc1	–
3.16	74	CC[C@@H](NC(=O)c1ccc2c(c1)ncn2Cc1ccc(Cl)cc1)c1ccccc1	–
0.501	77	CC[C@@H](NC(=O)c1ccc2c(c1)ncn2Cc1ccc(Cl)cc1Cl)c1ccccc1	–
39.8	80	CC[C@@H](NC(=O)c1ccc2c(c1)ncn2Cc1ccc(Cl)cn1)c1ccccc1	–
0.794	74	CC[C@@H](NC(=O)c1ccc2c(c1)ncn2Cc1ccc(Cl)cc1F)c1ccccc1	–
